Data published in patent US10738028B2, “Spiro three-membered ring, spiro five-membered ring peptide deformylase inhibitor and use thereof in antibacteria and anti-tumor” (priority 2016, dated 2020).
≈ marks a conversion by molar mass, not a printed value.

Experiments:
Type in all cases: cell-based
[1] = test system: HCT-116 colorectal cancer cell line; experiment: CCK-8 proliferation inhibition; settings: Homo sapiens, HCT-116, 72 h, concentration of 30 μM; 72 hours; CCK-8; read-out: HCT116 inhibition rate/%
Procedure: (1) HCT-116 colorectal cancer cell line, A549 lung cancer cell line, MGC-803 gastric cancer cell line, BEL-7402 liver cancer cell line, Jurkat T cell leukemia cell line, HL60 acute myeloid leukemia cell line, Hela cervical cancer cell line, MCF-7 breast cancer cell line, PC3 prostate cancer cell line and SAOS-2 osteosarcoma cell line were made into single cell suspension, 180 μL of which was inoculated into 96-well culture plate, which was cultured overnight in CO2 incubator (37° C., 5% CO2, 95% air).
(2) Each of the spiro three-membered ring, spiro five membered ring peptide deformylase inhibitors was dissolved in DMSO, and was further formulated into drug solution with required different final concentration using corresponding cell culture medium. The drug solutions were added to the above cells respectively (20 μL/well), with the control group added with 1‰ DMSO, and cultured in a CO2 incubator for 72 hours.
(3) After incubation for 72 hours, the culture solution was decanted, and 100 μL of 1:10 diluted CCK-8 solution was added.
Wherein, in step (1), the concentration of the single cell suspension was 2000 cells/well.
Wherein, in step (2), HCT-116 cells were cultured in McCoy's 5A medium (containing 10% newborn bovine serum, 1% double antibody); A549 and PC3 cells were cultured in F12 medium (containing 10% newborn bovine serum, 1% double antibody); MGC-803, BEL-7402, SAOS-2, Jurkat and HL60 cells were cultured in 1640 medium (containing 10% newborn bovine serum, 1% double antibody); and MCF-7 and Hela cells were cultured in DMEM high glucose medium (containing 10% newborn bovine serum, 1% double antibody).

[2] = test system: methicillin-sensitive Staphylococcus epidermidis (MSSE); experiment: MIC, two-fold agar dilution (CLSI), clinical isolates
From the text: (§1) 1. The invention adopts the two-fold agar dilution method recommended by the operating procedure of antimicrobial susceptibility testing set by American Clinical and Laboratory Standards Institute (CLSI) to determine the Minimum Inhibitory Concentration (MIC) of the test samples against the tested strains.

[3] = test system: Streptococcus pneoumoniae (SPN); experiment: as above
From the text: as §1

[4] = test system: methicillin-resistant Staphylococcus aureus (MRSA); experiment: as above
From the text: as §1

[5] = test system: Enterococcus faecium (EFM); experiment: as above
From the text: as §1

[6] = test system: methicillin-sensitive Staphylococcus aureus (MSSA); experiment: as above
From the text: as §1

[7] = test system: Enterococcus faecalis (EFA); experiment: as above
From the text: as §1

[8] = test system: Moraxella catarrhalis (BCA); experiment: as above
From the text: as §1

[9] = test system: Escherichia coli (including ESBLs, non-ESBLs); experiment: as above
From the text: as §1

[10] = test system: methicillin-resistant Staphylococcus epidermidis (MRSE); experiment: as above
From the text: as §1

CCCC[C@H](CN(O)C=O)C(=O)N1CC2(CC2)C[C@H]1C(=O)Nc1ccno1 [Example 17]
inhibition at 30 µM [1]: 13%
MIC (anti-bacterial activity) ([2]; strain MSSE 15-3): 1 µg/mL (≈ 2.64 µM)
MIC (anti-bacterial activity) ([2]; strain MSSE 15-4): 0.5 µg/mL (≈ 1.32 µM)
MIC (anti-bacterial activity) ([2]; strain MSSE 15-5): 0.5 µg/mL (≈ 1.32 µM)
MIC (anti-bacterial activity) ([2]; strain MSSE 15-6): 0.25 µg/mL (≈ 0.661 µM)
MIC (anti-bacterial activity) ([3]; strain SPN 16-2): 8 µg/mL (≈ 21.1 µM)
MIC (anti-bacterial activity) ([3]; strain SPN 16-4): 1 µg/mL (≈ 2.64 µM)
MIC (anti-bacterial activity) ([4]; strain MRSA 15-1): 1 µg/mL (≈ 2.64 µM)
MIC (anti-bacterial activity) ([4]; strain MRSA 15-2): 1 µg/mL (≈ 2.64 µM)
MIC (anti-bacterial activity) ([4]; strain MRSA 15-3): 1 µg/mL (≈ 2.64 µM)
MIC (anti-bacterial activity) ([4]; strain MRSA 15-4): 1 µg/mL (≈ 2.64 µM)
MIC (anti-bacterial activity) ([5]; strain EFM 15-1): 1 µg/mL (≈ 2.64 µM)
MIC (anti-bacterial activity) ([5]; strain EFM 15-2): 2 µg/mL (≈ 5.29 µM)
MIC (anti-bacterial activity) ([5]; strain EFM 15-3): 0.5 µg/mL (≈ 1.32 µM)
MIC (anti-bacterial activity) ([5]; strain EFM 15-4): 2 µg/mL (≈ 5.29 µM)
MIC (anti-bacterial activity) ([5]; strain EFM 15-5): 1 µg/mL (≈ 2.64 µM)
MIC (anti-bacterial activity) ([5]; strain EFM 15-6): 2 µg/mL (≈ 5.29 µM)
MIC (anti-bacterial activity) ([6]; strain MSSA 15-3): 1 µg/mL (≈ 2.64 µM)
MIC (anti-bacterial activity) ([6]; strain MSSA 15-4): 1 µg/mL (≈ 2.64 µM)
MIC (anti-bacterial activity) ([6]; strain MSSA 15-5): 0.25 µg/mL (≈ 0.661 µM)
MIC (anti-bacterial activity) ([6]; strain MSSA 15-6): 1 µg/mL (≈ 2.64 µM)
MIC (anti-bacterial activity) ([7]; strain EFA 15-1): 8 µg/mL (≈ 21.1 µM)
MIC (anti-bacterial activity) ([7]; strain EFA 15-2): 8 µg/mL (≈ 21.1 µM)
MIC (anti-bacterial activity) ([7]; strain EFA 15-3): 2 µg/mL (≈ 5.29 µM)
MIC (anti-bacterial activity) ([7]; strain EFA 15-4): 8 µg/mL (≈ 21.1 µM)
MIC (anti-bacterial activity) ([7]; strain EFA 15-5): 8 µg/mL (≈ 21.1 µM)
MIC (anti-bacterial activity) ([7]; strain EFA 15-6): 8 µg/mL (≈ 21.1 µM)
MIC (anti-bacterial activity) ([7]; strain EFA 15-9): 8 µg/mL (≈ 21.1 µM)
MIC (anti-bacterial activity) ([8]; strain BCA 14-1): 4 µg/mL (≈ 10.6 µM)
MIC (anti-bacterial activity) ([8]; strain BCA 14-4): 2 µg/mL (≈ 5.29 µM)
MIC (anti-bacterial activity) ([8]; strain BCA 14-5): 1 µg/mL (≈ 2.64 µM)
MIC (anti-bacterial activity) ([8]; strain BCA 14-6): 2 µg/mL (≈ 5.29 µM)
MIC (anti-bacterial activity) ([8]; strain BCA 14-7): 1 µg/mL (≈ 2.64 µM)
MIC (anti-bacterial activity) ([8]; strain BCA 14-8): 2 µg/mL (≈ 5.29 µM)
MIC (anti-bacterial activity) ([8]; strain BCA 14-10): 1 µg/mL (≈ 2.64 µM)
MIC (anti-bacterial activity) ([9]; strain ECO+ 15-1): 32 µg/mL (≈ 84.6 µM)
MIC (anti-bacterial activity) ([9]; strain ECO+ 15-2): 32 µg/mL (≈ 84.6 µM)
MIC (anti-bacterial activity) ([9]; strain ECO+ 15-3): > 32 µg/mL
MIC (anti-bacterial activity) ([9]; strain ECO+ 15-4): > 32 µg/mL
MIC (anti-bacterial activity) ([9]; strain ECO− 15-1): 16 µg/mL (≈ 42.3 µM)
MIC (anti-bacterial activity) ([9]; strain ECO− 15-2): 32 µg/mL (≈ 84.6 µM)
MIC (anti-bacterial activity) ([9]; strain ECO− 15-3): > 32 µg/mL
MIC (anti-bacterial activity) ([9]; strain ECO− 15-4): 32 µg/mL (≈ 84.6 µM)
MIC (anti-bacterial activity) ([10]; strain MRSE 15-1): 0.25 µg/mL (≈ 0.661 µM)
MIC (anti-bacterial activity) ([10]; strain MRSE 15-2): 0.5 µg/mL (≈ 1.32 µM)
MIC (anti-bacterial activity) ([10]; strain MRSE 15-3): 0.5 µg/mL (≈ 1.32 µM)
MIC (anti-bacterial activity) ([10]; strain MRSE 15-7): 1 µg/mL (≈ 2.64 µM)
